Structures can show the parent of a compound that is named as a salt. Where two headings read alike, the source gives them in different places.
Molecular target: T1, human neuropeptide Y5 receptor (Homo sapiens, UniProt Q15761)
T1 construct: expressed in transfected cells; cell membranes
T1 sequence (Q15761 1-445): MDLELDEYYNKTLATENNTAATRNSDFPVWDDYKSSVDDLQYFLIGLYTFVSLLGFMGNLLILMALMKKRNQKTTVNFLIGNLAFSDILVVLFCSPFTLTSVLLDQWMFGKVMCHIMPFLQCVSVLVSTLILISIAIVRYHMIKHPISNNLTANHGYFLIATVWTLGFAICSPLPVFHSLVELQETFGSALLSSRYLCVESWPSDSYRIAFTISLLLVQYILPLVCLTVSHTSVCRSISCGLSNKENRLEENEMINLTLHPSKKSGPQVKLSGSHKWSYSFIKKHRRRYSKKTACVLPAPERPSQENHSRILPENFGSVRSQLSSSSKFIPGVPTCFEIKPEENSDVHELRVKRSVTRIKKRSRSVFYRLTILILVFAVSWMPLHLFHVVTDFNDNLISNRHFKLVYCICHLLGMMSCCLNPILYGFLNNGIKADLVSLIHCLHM
Experiment: NPY5 HTS Centrifugation Assay: competition of 125I-PYY binding to membranes of NPY5-transfected HEK293 cells
Conditions: for inhibition at 3 µM: read-out: % Inhibition of 125I-PYY Binding @ 3 uM; for inhibition at 30 µM: read-out: % Inhibition of 125I-PYY Binding @ 30 uM
Experimental: The compounds described in this invention were evaluated for binding to the human neuropeptide Y5 receptor.
Stably transfected cells served as the source for the membranes for the NPY5 receptor binding assay.
NPY5-transfected HEK293 cells were grown to confluence in 150 cm^2 culture dishes. […] Cells were then incubated in phosphate-buffered saline without Calcium and without Magnesium, supplemented with 2 mM EDTA. Cells were incubated for 10 minutes at room temperature and the cells were collected by repetitive pipeting. Cells were formed into pellets and then frozen at -80° C. until needed. Frozen pellets were homogenized with a polytron at full speed for 12 seconds in a homogenization buffer (20 mM Tris HCl, 5 mM EDTA, pH 7.4). Homogenates were centrifuged for 5 minutes at 4° C. at 200 g. Supernatants were transferred to corex tubes and centrifuged for 25 minutes at 28,000 g. Pellets were re-suspended in Binding (20 mM HEPES, 10 mM NaCl, 0.22 mM KH2 PO4, 1.3 mM CaCl2, 0.8 mM MgSO4, pH 7.4). Membranes were kept on ice until use.
Compounds to be tested were prepared as 10x stocks in binding buffer and added first to assay tubes (RIA vials, Sarstedt). […] To each tube is added 100 μL of membranes and the mixture is agitated by pipeting 2 times. Samples are incubated for 1 hr at room temperature. Aluminum cast plates (Sarstedt) containing the vials are then centrifuged 10 minutes at 3200 rpm in a Sorvall RT6000. Supernatant is then aspirated. To each vial 400 μL PBS is added and this is then aspirated again. Vials are then put in carrier polypropylene 12×75 tube and counted in gamma counter (Packard). Non-specific binding is determined in the presence of 300 nM NPY.

[1] = 3 uM, 80 pM 125I-PYY, human NPY Y5 receptor, 1 hr room temperature
[2] = 30 uM, 80 pM 125I-PYY, human NPY Y5 receptor, 1 hr room temperature

| SMILES | inhibition at 3 µM [1] | inhibition at 30 µM [2] | inhibition at 3 µM | inhibition at 30 µM |
| --- | --- | --- | --- | --- |
| COc1ccc2c(c1)CC[C@H](NCCc1ccc(OC)c(OC)c1)[C@@H]2Cc1ccccc1 (racemic) [Compound 6, rac-cis-1-(Phenylmethyl)-6-methoxy-N-(2-(3,4-dimethoxyphenyl)ethyl)-1,2,3,4-tetrahydro-2-naphthalenamine] | 86% | 101% | – | – |
| Fc1ccc(CN[C@H]2CCc3ccccc3[C@H]2Cc2ccccc2)cc1 (racemic) [Compound 9, rac-cis-1-(Phenylmethyl)-N-(4-fluorophenylmethyl)-1,2,3,4-tetrahydro-2-naphthalenamine monohydrobromide] | 20% | 97% | – | – |
| COc1ccccc1CN[C@H]1CCc2ccccc2[C@H]1Cc1ccccc1 (racemic) [Compound 11, rac-cis-1-(Phenylmethyl)-N-(2-methoxyphenylmethyl)-1,2,3,4-tetrahydro-2-naphthalenamine] | 21% | 96% | – | – |
| COc1ccccc1CN[C@H]1CCc2ccccc2[C@H]1Cc1ccc(F)cc1 (racemic) [Compound 12, rac-cis-1-(4-Fluorophenylmethyl)-N-(2-methoxyphenylmethyl)-1,2,3,4-tetrahydro-2-naphthalenamine monohydrobromide] | 16% | 98% | – | – |
| COc1ccccc1CN[C@@H]1CCc2ccccc2[C@H]1Cc1ccc(F)cc1 (racemic) [Compound 13, rac-trans-1-(4-Fluorophenylmethyl)-N-(2-methoxyphenylmethyl)-1,2,3,4-tetrahydro-2-naphthalenamine monooxalate] | – | – | 16% | 89% |
| COc1ccc2c(c1)[C@@H](Cc1ccccc1)[C@@H](NCc1ccccc1OC)CC2 (racemic) [Compound 15, rac-cis-1-(Phenylmethyl)-7-methoxy-N-(2-methoxyphenylmethyl)-1,2,3,4-tetrahydro-2-naphthalenamine monohydrobromide] | 31% | – | – | – |
| Fc1ccc(C[C@@H]2c3ccccc3CC[C@H]2NCCc2c[nH]c3ccccc23)cc1 (racemic) [Compound 16, rac-trans-1-(4-Fluorophenylmethyl)-N-(2-(3-indolyl)ethyl)-1,2,3,4-tetrahydro-2-naphthalenamine monooxalate] | – | – | 48% | 101% |
| COc1ccc2c(c1)[C@@H](Cc1ccccc1)[C@H](NCCc1c[nH]c3ccccc13)CC2 (racemic) [Compound 19, rac-trans-1-(Phenylmethyl)-7-methoxy-N-(2(3-indolyl)ethyl)-1,2,3,4-tetrahydro-2-naphthalenamine monooxalate] | – | – | 49% | – |
| c1ccc2c(c1)CC[C@@H](NCCc1c[nH]c3ccccc13)[C@@H]2Cc1ccc2ccccc2c1 (racemic) [Compound 21, rac-trans-1-(2-Naphthylmethyl)-N-(2-(3-indolyl)ethyl)-1,2,3,4-tetrahydro-2-naphthalenamine monooxalate] | – | – | 33% | 103% |
| COc1ccccc1CN[C@H]1CCc2ccccc2[C@H]1Cc1ccc2ccccc2c1 (racemic) [Compound 22, rac-cis-1-(2-Naphthylmethyl)-N-(2-methoxyphenylmethyl)-1,2,3,4-tetrahydro-2-naphthalenamine monohydrobromide] | 15% | 96% | – | – |
| Fc1ccc(C[C@@H]2c3ccccc3CC[C@@H]2NCCCc2ccccc2)cc1 (racemic) [Compound 24, rac-cis-1-(4-Fluorophenylmethyl)-N-(3-phenylpropyl)-1,2,3,4-tetrahydro-2-naphthalenamine monohydrobromide] | 19% | 102% | – | – |
| c1ccc(C[C@H]2c3ccccc3CC[C@H]2NCCc2c[nH]c3ccccc23)cc1 (relative stereo) [Compound 8] | 73% | 105% | – | – |
| Fc1ccc(CCN[C@@H]2CCc3ccccc3[C@@H]2Cc2ccccc2)cc1 (relative stereo) [Compound 14, monohydrobromide] | 13% | 98% | – | – |
| COc1ccccc1C(=O)N[C@@H]1CCc2ccccc2[C@@H]1Cc1ccccc1 (relative stereo) [Compound 17, rac-cis-1-(Phenylmethyl)-N-(2-methoxyphenyl-2-oxomethyl)-1,2,3,4-tetrahydro-2-naphthalenamine monohydrobromide] | 65% | 98% | – | – |
| COc1ccc2c(c1)[C@H](Cc1ccccc1)[C@H](NCCc1c[nH]c3ccccc13)CC2 (relative stereo) [Compound 18, rac-cis-1-(Phenylmethyl)-7-methoxy-N-(2-(3-indolyl)ethyl)-1,2,3,4-tetrahydro-2-naphthalenamine 0.8 fumarate 0.8 methanol 0.2 hydrate] | 61% | 104% | – | – |
| c1ccc2c(c1)CC[C@@H](NCCc1c[nH]c3ccccc13)[C@H]2Cc1ccc2ccccc2c1 (relative stereo) [Compound 20, rac-cis-1-(2-Naphthylmethyl)-N-(2-(3-indolyl)ethyl)-1,2,3,4-tetrahydro-2-naphthalenamine hemifumarate methanol] | 27% | 99% | – | – |
| COc1ccccc1CC(=O)N[C@@H]1CCc2ccccc2[C@@H]1Cc1ccccc1 (relative stereo) [Compound 23] | 12% | 47% | – | – |
| COc1ccc(CCN[C@H]2CCc3ccccc3[C@H]2Cc2cccnc2)cc1OC (relative stereo) [Compound 28, rac-cis-1-(3-pyridylmethyl)-N-(2-(3,4-dimethoxyphenyl)ethyl-1,2,3,4-tetrahydro-2-naphthalenaminemonohydrobromide] | 11% | 66% | – | – |
| COc1ccc2c(c1)CC[C@@H](NCCc1ccccc1)[C@H]2Cc1ccccc1 (relative stereo) [Compound 29] | 33% | 95% | – | – |
| COc1ccc(CCN[C@@H]2CCc3cc(OC)ccc3[C@@H]2Cc2ccccc2)cc1 (relative stereo) [Compound 30] | 62% | 99% | – | – |
| COc1ccc2c(c1)CC[C@@H](NCCc1ccc(Cl)c(Cl)c1)[C@H]2Cc1ccccc1 (relative stereo) [Compound 31] | 31% | 93% | – | – |
| COc1cccc(C[C@H]2c3ccc(OC)cc3CC[C@H]2NCCc2ccc(OC)c(OC)c2)c1 (relative stereo) [Compound 32] | 44% | 97% | – | – |
| COc1ccc2c(c1)CC[C@@H](NCCc1ccc(OC)c(OC)c1)[C@H]2Cc1cccc2ccccc12 (relative stereo) [Compound 33] | 16% | 73% | – | – |
| COc1ccc(C[C@H]2c3ccc(OC)cc3CC[C@H]2NCCc2ccc(OC)c(OC)c2)cc1 (relative stereo) [Compound 34] | 89% | 103% | – | – |
| COc1ccc(CCN[C@@H]2CCc3ccccc3[C@@H]2Cc2ccccc2)cc1OC (relative stereo) [Compound 35] | 47% | 99% | – | – |
| COc1ccc2c(c1)CC[C@@H](NCCc1ccc(Oc3ccccc3)cc1)[C@H]2Cc1ccccc1 (relative stereo) [Compound 36] | 35% | 87% | – | – |
| COCCOc1ccc(CCN[C@H]2CCc3cc(OC)ccc3[C@H]2Cc2ccccc2)cc1 (relative stereo) [Compound 37] | 84% | – | – | – |
